Assay results taken from patent publication US10183936B2, “Hepatitis B core protein allosteric modulators” (priority 2014, dated 2019).

Key:
AD38 cells = experiment: Viability of AD38 cells (Promega CellTiter-Glo) at the end of compound treatment; format: cell-based; conditions: 10 μM compound, 6 days, luminescence normalized against DMSO control wells (controls being 100%)
In short: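 Luminescent CellTiter-Glo read-out, taken after supernatant was swapped for tetracycline-free 2% FBS medium with 1% DMSO, gave percent viability relative to DMSO controls set at 100%. Cells were plated at 50,000/well and exposed to compound, added as a 10× stock in 10% DMSO, for 6 days at 37° C.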

[1] = tested on: HBV viral production in AD38 cells; experiment: Viral load production in AD38 cells by quantitative PCR of the HBV core sequence in supernatant; format: cell-based; conditions: Hepatitis B virus, 144 h; 10 μM compound, 6 days at 37° C., viral load in supernatant compared against DMSO control wells; read-out: AD38 Viral Load (CpAM/DMSO %) at 10 μM
In short: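 Read-out is TaqMan qPCR of the HBV core region in supernatant, quantitated against standards and referenced to DMSO controls (≥3 per plate). Cells: AD38 at 50,000/well, exposed to compound (added as 10× stock in 10% DMSO) for 6 days at 37° C.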

In the case of `O=C(Nc1cccc(-c2cccnc2)c1)c1ccc2c(c1)NC(=O)c1ccccc1S2(=O)=O` [Compound 1629], the “AD38 Viability Normalized Result (CPAM/DMSO %) at 10 μM” value (AD38 cells) is reported as 95% and the activity at 10 µM [1] is reported as 3%.
`O=C(NCc1ccc(-c2ccccc2)cc1)c1ccc2c(c1)NC(=O)c1ccccc1S2` [Compound 1112] was tested, and the “AD38 Viability Normalized Result (CPAM/DMSO %) at 10 μM” value (AD38 cells) was 73% and the activity at 10 µM [1] was 4%.
For `O=C(NCc1cnco1)c1ccc2c(c1)NC(=O)c1cc(F)ccc1S2` [Compound 1311], the “AD38 Viability Normalized Result (CPAM/DMSO %) at 10 μM” value (AD38 cells) was 95% and the activity at 10 µM [1] was 8%.
`O=C(Nc1cccc(-c2ccccc2)c1)c1ccc2c(c1)NC(=O)c1cc(F)ccc1S2` [Compound 1333] was tested, and the “AD38 Viability Normalized Result (CPAM/DMSO %) at 10 μM” value (AD38 cells) was 73% and the activity at 10 µM [1] was 20%.
In the case of `O=C(NCc1ccc(-c2cncnc2)cc1)c1ccc2c(c1)NC(=O)c1cc(F)ccc1S2` [Compound 1314], the “AD38 Viability Normalized Result (CPAM/DMSO %) at 10 μM” value (AD38 cells) is reported as 101% and the activity at 10 µM [1] is reported as 69%.
With `O=C(NCc1ccc(F)cc1)c1ccc2c(c1)NC(=O)c1ccccc1S2(=O)=O` [Compound 1623] the “AD38 Viability Normalized Result (CPAM/DMSO %) at 10 μM” value (AD38 cells) was 128% and the activity at 10 µM [1] was 1%.
With `O=C(NCCc1ccccn1)c1ccc2c(c1)NC(=O)c1ccccc1N2Cc1ccccc1` [Compound 1474] the “AD38 Viability Normalized Result (CPAM/DMSO %) at 10 μM” value (AD38 cells) was 101% and the activity at 10 µM [1] was 51%.
`CN(C)c1ccccc1CNC(=O)c1ccc2c(c1)NC(=O)c1ccccc1S2` [Compound 1227] was tested, and the “AD38 Viability Normalized Result (CPAM/DMSO %) at 10 μM” value (AD38 cells) was 92% and the activity at 10 µM [1] was 10%.
In the case of `O=C(NCc1cncs1)c1ccc2c(c1)NC(=O)c1ccc(F)cc1S2` [Compound 1356], the “AD38 Viability Normalized Result (CPAM/DMSO %) at 10 μM” value (AD38 cells) is reported as 101% and the activity at 10 µM [1] is reported as 3%.
With `O=C(NCCc1ccc(O)cc1)c1ccc2c(c1)NC(=O)c1ccccc1S2` [Compound 1115] the “AD38 Viability Normalized Result (CPAM/DMSO %) at 10 μM” value (AD38 cells) was 106% and the activity at 10 µM [1] was 1%.
In the case of `O=C(Nc1ccncn1)c1ccc2c(c1)NC(=O)c1cc(F)ccc1S2` [Compound 1344], the “AD38 Viability Normalized Result (CPAM/DMSO %) at 10 μM” value (AD38 cells) is reported as 102% and the activity at 10 µM [1] is reported as 96%.
`CNC(=O)c1ccc2c(c1)Sc1ccc(C(=O)NCCc3ccccc3)cc1NC2=O` [Compound 1280, N^3-methyl-11-oxo-N^8-phenethyl-10, 11-dihydrodibenzo [b,f] [1,4] thiazepine-3,8-dicarboxamide] was tested, and the “AD38 Viability Normalized Result (CPAM/DMSO %) at 10 μM” value (AD38 cells) was 94% and the activity at 10 µM [1] was 74%.
In the case of `O=C(Nc1nc2ccccc2o1)c1ccc2c(c1)NC(=O)c1cc(F)ccc1S2` [Compound 1354], the “AD38 Viability Normalized Result (CPAM/DMSO %) at 10 μM” value (AD38 cells) is reported as 70% and the activity at 10 µM [1] is reported as 98%.
In the case of `O=C(NCCc1cccnc1)c1ccc2c(c1)NC(=O)c1cccc(F)c1S2` [Compound 1391], the “AD38 Viability Normalized Result (CPAM/DMSO %) at 10 μM” value (AD38 cells) is reported as 71% and the activity at 10 µM [1] is reported as 2%.
`O=C(NCCC1CCCCC1)c1ccc2c(c1)NC(=O)c1ccncc1S2` [Compound 1237] was tested, and the “AD38 Viability Normalized Result (CPAM/DMSO %) at 10 μM” value (AD38 cells) was 66% and the activity at 10 µM [1] was 4%.
For `Cc1ccc2c(c1)Sc1ccc(C(=O)NCCC3CCCCC3)cc1NC2=O` [Compound 1273], the “AD38 Viability Normalized Result (CPAM/DMSO %) at 10 μM” value (AD38 cells) was 96% and the activity at 10 µM [1] was 6%.
`O=C(NCc1cnco1)c1ccc2c(c1)NC(=O)c1cccc(F)c1S2` [Compound 1408] was tested, and the “AD38 Viability Normalized Result (CPAM/DMSO %) at 10 μM” value (AD38 cells) was 94% and the activity at 10 µM [1] was 17%.
With `O=C(Nc1cccc(-c2ccccc2C(=O)O)c1)c1ccc2c(c1)NC(=O)c1cc(F)ccc1S2` [Compound 1435, 3′-(2-fluoro-11-oxo-10, 11-dihydrodibenzo [b,f] [1,4]thiazepine-8-carboxamido)-[1, 1′-biphenyl]-2-carboxylic acid] the “AD38 Viability Normalized Result (CPAM/DMSO %) at 10 μM” value (AD38 cells) was 99% and the activity at 10 µM [1] was 77%.
With `O=C1Nc2cc(S(=O)(=O)NCc3cncnc3)ccc2Sc2ccccc21` [Compound 1473] the “AD38 Viability Normalized Result (CPAM/DMSO %) at 10 μM” value (AD38 cells) was 97% and the activity at 10 µM [1] was 81%.
With `O=C1Nc2cc(S(=O)(=O)Nc3ccc(Cl)cc3F)ccc2Sc2ccccc21` [Compound 1544] the “AD38 Viability Normalized Result (CPAM/DMSO %) at 10 μM” value (AD38 cells) was 97% and the activity at 10 µM [1] was 40%.
For `CC(=O)N1CCC(CNC(=O)c2ccc3c(c2)NC(=O)c2ccccc2S3)C1` (stereo not shown) [Compound 1615, N-((1-acetylpyrrolidin-3-yl)methyl)-11-oxo-10, 11-dihydrodibenzo [b,f] [1,4] thiazepine-8-carboxamide], the “AD38 Viability Normalized Result (CPAM/DMSO %) at 10 μM” value (AD38 cells) was 123% and the activity at 10 µM [1] was 32%.
With `O=C(Nc1nc2ccccc2s1)c1ccc2c(c1)NC(=O)c1cc(F)ccc1S2` [Compound 1339] the “AD38 Viability Normalized Result (CPAM/DMSO %) at 10 μM” value (AD38 cells) was 70% and the activity at 10 µM [1] was 113%.
In the case of `Cc1c(C(=O)Nc2cccc(-c3ccccc3)c2)ccc2c1NC(=O)c1ccccc1S2` [Compound 1496], the “AD38 Viability Normalized Result (CPAM/DMSO %) at 10 μM” value (AD38 cells) is reported as 18% and the activity at 10 µM [1] is reported as 2%.
In the case of `O=C1Nc2cc(CNCCc3ccccc3)ccc2Sc2ccccc21` [Compound 1357, 8-((phenethylamino)methyl) dibenzo [b,f] [1,4] thiazepin-11(10H)-one], the “AD38 Viability Normalized Result (CPAM/DMSO %) at 10 μM” value (AD38 cells) is reported as 115% and the activity at 10 µM [1] is reported as 39%.
`CCN1c2ccc(C(=O)NCc3cccnc3)cc2NC(=O)c2ccccc21` [Compound 1550] was tested, and the “AD38 Viability Normalized Result (CPAM/DMSO %) at 10 μM” value (AD38 cells) was 87% and the activity at 10 µM [1] was 1%.
`O=C(NCCc1ccc(-c2cnn[nH]2)cc1)c1ccc2c(c1)NC(=O)c1ccccc1S2` [Compound 1291] was tested, and the “AD38 Viability Normalized Result (CPAM/DMSO %) at 10 μM” value (AD38 cells) was 102% and the activity at 10 µM [1] was 1%.
